Measurements reported in patent US5137720A, “Antiviral combination, and method of treatment” (Ciba-Geigy Corporation, priority 1988, dated 1992).

Key:
rat alveolar macrophages = test: In vitro alveolar macrophage-mediated cytotoxicity against MADB-200 tumor cells (crystal violet); format: cell-based; settings: interferon 0
Experimental: Macrophage-mediated cytotoxicity was assessed against syngeneic MADB-200 adenocarcinoma target cells available from the American Type Culture Collection, ATCC. These cells were maintained as monolayer cultures in MEM supplemented with 10% fetal calf serum. Cultures were maintained at 37° C. in a humidified atmosphere containing 5% CO2. Cultures were routinely tested for the presence of mycoplasma.
Alveolar macrophages (AM) were collected by transtracheal lavage (Brownbill and Schumann, Cancer Immunol. Immunother. 20, 11-17, 1985). The cells recovered from lavage fluids were centrifuged at 400× g for 10 minutes, suspended in serum-free medium, and plated into 96-well Microtest II plastic tissue culture dishes at 5×10^4 cells per well. After incubation for 60 minutes, cells were washed with HBSS to remove non-adherent […].
Purified cultures of rat alveolar macrophages were incubated at 37° C. for 1 hour with 0.2 ml of control medium, recombinant alpha B1 D2 B3 B4, MTP-PE, or a combination of alpha B1 D2 B3 B4 and MTP-PE. To these treated cells, 5×10^3 MADB-200 tumor cells were added and allowed to incubate for 72 hours at 37° C. Thus, 50,000 macrophages were incubated with 5000 tumor cells.
A colorimetric assay using crystal violet staining of remaining MADB-200 tumor cells was used to determine macrophage cytotoxicity (Brownbill and Schumann, Cancer Immunol. Immunother. 20, 11-17, 1985). Briefly, following incubation, wells are washed with HBSS and the remaining cells fixed with formalin and stained with crystal violet. Each well is thoroughly washed after staining, the cells decolorized with alcohol, and the extract read with a colorimeter. The % cytotoxic activity of alveolar macrophages was calculated as follows: [formula]

HSV-2/MS = test: Herpes genitalis in the guinea pig, local lesion scores; format: in vivo, guinea pigs of the Pirbright strain
Experimental: Female albino guinea-pigs of the Pirbright strain, weighing 200-300 g, are infected intravaginally after gentle opening of the introitus vaginae with a forceps. Thereafter, pieces of fibrin foam (SEVAC, Prague) measuring 5×5×4 mm are impregnated with 0.05 ml containing about 10^4 PFU of HSV 2/MS from cultures in HEL. These pieces are introduced intravaginally (1-2). The animals are kept in groups of 4-5 in type 4 Macrolon cages.
Three days after infection, by which time the local symptomatology scores (see below) range from 3 to 6 in about 90% of the animals, these animals are divided at random into groups of 10-15 per preparation and untreated control. Treatment is started 72 hours after infection and administered twice daily for 5 days. One tenth of a milliliter is applied intravaginally and 0.1 ml extravaginally.
From the 3rd day onwards, the local symptoms are evaluated thrice weekly. The criteria applied in assessing the therapeutic effects of treatment are the rate and the degree of regression of overt signs of infection in the individual animals. The degree and severity of local symptoms are scored according to the following points system:
The number indicated in the following Table of female albino guinea pigs of the Pirbright strain (150-180 g body weight) are infected intravaginally with ~10^4 PFU (plaque-forming units) of herpes simplex type 2 virus, cultivated in HEL (human embryonal lungs) cells, as described in B. Lukas et al., Arch. ges. Virusforsch. 44, 153-155 (1974).
Beginning 72 h after infection, animals are treated intravaginally twice a day for 5 days with 0.2 ml of a gel containing one of the following: i) alpha interferon B1 D2 B3 B4 at 1.5×10^6 units/kg; ii) Liposome-encapsulated MTP-PE at 1 mg/kg and iii) a mixture of both. Guinea pigs receiving placebo treatment are given a gel without active ingredients.

[1] = Body distribution of liposomes following i.v. administration; format: in vivo; settings: rodents
Experimental: Alpha interferon is diluted in calcium and magnesium free PBS, and 2.5 ml is used to reconstitute 250 mg lyophilized synthetic lipids (POPC/OOPS, 7:3 molar ratio) containing 1 mg MTP-PE. This mixture is vigorously shaken in a Vortex mixer for 2 minutes and allowed to stand for 30 minutes prior to revortexing and the addition of another 2.5 ml of PBS. It is found (using I^125 labelled alpha interferon) that approximately 20% of the interferon is bound to liposomes following this reconstitution procedure. Liposomes prepared in this manner have the same physical properties as liposomes containing only MTP-PE and appear to follow the same body distribution profile following i.v. administration in rodents. Approximately 2-3 times more MTP-PE and interferon reach the lung when both substances are incorporated into liposomes as compared to unencapsulated forms.

CCCCCCCCCCCCCCCC(=O)OC[C@H](COP(=O)([O-])OCCNC(=O)[C@H](C)NC(=O)CC[C@@H](NC(=O)[C@H](C)NC(=O)[C@@H](C)O[C@H]1[C@H](O)[C@@H](CO)O[C@@H](O)[C@@H]1NC(C)=O)C(N)=O)OC(=O)CCCCCCCCCCCCCCC.[Na+] [MTP-PE, N-acetyl-muramyl-L-alanyl-D-isoglutaminyl-L-alanine-2-(1,2-di-palmitoyl-sn-glycero-3-hydroxyphosphoryloxy)-ethylamide-sodium salt]
% Cytotoxicity (rat alveolar macrophages; MTP-PE alone 0.01 μg/ml): 0% | % Cytotoxicity (rat alveolar macrophages; MTP-PE alone 0.03 μg/ml): 7% | % Cytotoxicity (rat alveolar macrophages; MTP-PE alone 0.1 μg/ml): 10% | Mean Lesion Score ± Standard Error (HSV-2/MS; day 3 after infection (start of treatment), gel intravaginally twice a day for 5 days, interferon 1.5×10^6 units/kg, liposome-encapsulated MTP-PE 1 mg/kg): 1.9 ± 0.23 | Mean Lesion Score ± Standard Error (HSV-2/MS; day 5 after infection, same treatment): 2.8 ± 1.15 | Mean Lesion Score ± Standard Error (HSV-2/MS; day 7 after infection, same treatment): 4.3 ± 1.32 | Mean Lesion Score ± Standard Error (HSV-2/MS; day 10 after infection, same treatment): 4.0 ± 1.93 | Mean Lesion Score ± Standard Error (HSV-2/MS; day 12 after infection, same treatment): 4.3 ± 1.42 | Mean Lesion Score ± Standard Error (HSV-2/MS; day 14 after infection, same treatment): 4.3 ± 1.42 | Mean Lesion Score ± Standard Error (HSV-2/MS; day 17 after infection, same treatment): 3.0 ± 1.60 | amount reaching the lung, both substances incorporated into liposomes as compared to unencapsulated forms [1]: 2-3 times
